Results reported in patent US20120029047A1, “USE OF HDAC INHIBITORS FOR THE TREATMENT OF BONE DESTRUCTION” (priority 2007, published 2012).

How the values were obtained:
MM1S cells [1] = test: MM1S disseminated multiple myeloma model, tumor burden by bioluminescence; format: in vivo, SCID-beige mice
Experimental: Female SCID-beige mice were injected with MM1S cells (2×10^6) intravenously (iv) into the tail vein on Day 0. Treatment was initiated on Day 10 when the average tumor burden, as determined by bioluminescence, reached approximately 8.0×10^5-1.0×10^6 photons per second. All treatment groups consisted of 8 animals. […] Tumor burden and body weights were recorded once a week during the active dosing period. In vivo micro-computed tomography (microCT) images were acquired in live animals on day 32 and 33 (Study #1) or Day 34 and 35 (Study #2). In the second study, animals were individually monitored until achievement of clinical endpoint. Treatments were started on Day 10 post-iv tail implantation (2.0 million cells/animal). […] Vehicle control (D5W) was administered ip times per week, for 3 weeks. Initial group size: 8 animals. Final efficacy data and body weight change were calculated 72 hours post-last dose. Treatments were started on Day 10 post-iv tail implantation (2.0 million cells/animal). […] Vehicle control (D5W) was administered ip times per week, for 3 weeks. Initial group size: 8 animals. With respect to FIG. 2, treatments were started on Day 11 post-iv tail implantation (2.0 million cells/animal). NVP-LBH589-CU was administered ip, at 15 mg/kg (A), or 10 and 20 mg/kg (B), 5 times a week (qd×5/wk) for 4 weeks. Vehicle control (D5W) was administered ip 5 times a week (qd×5/wk), for 4 weeks. Bortezomib was administered iv, at 0.2 mg/kg, once per week (qwk) or 1 mg/kg, twice per week in Study #0879 for 4 weeks (biwk) (B). Initial group size: 8 animals. Final efficacy data are shown in the A panel for Study #0879 and B panel for Study #0942. Body weight changes were calculated on 24 hours post-last dose for each study (right panels).

MM1S tumor bearing mice [2] = test: In vivo microCT analysis of tibial trabecular bone density; parameters: species or system SCID-beige mice; settings: for increase in median trabecular bone density: after 4 weeks of treatment
Source text: (§1) Animals were anesthetized with 2% isoflurane mixed with oxygen (2 L/min.) and then placed in a mouse holder (custom made, Peter Ingold, NIBR Basel) specifically designed to align both tibiae and mounted into an in vivo high resolution microCT scanner (VivaCT40, Scanco, Switzerland). To insure correct positioning of the mouse, a scout view of bilateral tibia bones and knee joints was taken and the region of interest (ROI, 2.23 mm in length) was positioned to start at the growth plate extending distally over the area of the trabecular bone (FIG. 3). The scanner was set to a nominal isotropic voxel size of 21 μm, referred to as medium/standard resolution. The X-ray tube was operated at 55 kVp and 145 mA with a focal spot size of 5 μm. Five hundred projection images were acquired per scan with an integration time of 180 ms. Tomographic images were reconstructed on a VMS cluster (HP Alpha, HP, Palo Alto, USA) in 1024×1024 pixel matrices using a conebeam back projection procedure resulting in 315 axial slices.
(§2) For determination of trabecular and cortical bone features, a 2.23 mm region of interest was placed to start at the growth plate extending distally. 106 axial slices were obtained using a μ-CT VivaCT40Scanner (SCANCO, Switzerland) with 55 kv, 145 mA, 180 ms integration time and 21 μm resolution. Trabecular bone density (BV/TV) was measured in a 0.735 mm region of a tibia (9 slices proximal and 25 slices distal from the tibial tuberosity) using SCANCO software (SCANCO, Switzerland) with a threshold of 275 is used to define calcified bone volume (BV). Cortical bone density (BV/TV) was measured in a 1.5 mm region of a tibia (15 slices proximal and 55 slices distal from the tibial tuberosity) using SCANCO software (SCANCO Switzerland) with a threshold of 275. Three-dimensional analysis was performed on the determined regions utilizing the SCANCO operational software. All treatment groups were scanned over the course of two days, with equal numbers of animals from each treatment group scanned each day.
FIG. 4 describes a […] region of interest was placed to start at the growth plate extending distally. 106 axial slices were obtained using a μ-CT VivaCT40Scanner (SCANCO, Switzerland) with 55 kv, […], 180 ms integration time and 21 μm resolution. Trabecular bone density, bone volume/total volume (BV/TV), was measured in a 0.735 mm region of a tibia (10 slices proximal and 25 slices distal from the tibial tuberosity) using SCANCO software (SCANCO, Switzerland) with a threshold of 275. Cortical bone density, bone volume/total volume (BV/TV), was measured in a 1.5 mm region of a tibia (15 slices proximal and 55 slices distal from the tibial tuberosity) using SCANCO software (SCANCO Switzerland) with a threshold of 275.

TRACP5B = test: Serum bio-marker TRACP5B ELISA (MouseTRAP Assay); format: in vivo, mouse
Experimental: A serum marker of bone metabolism, TRACP5B, was assessed for mouse serum changes. The MouseTRAP™ Assay kit is an ELISA assay (Cat#SB-TR103, IDS Fountain Hills, Ariz.). Briefly, polyclonal […] TRACP5B antibodies are incubated in 96 well plates coated with anti-rabbit IgG. This ELISA kit is specific for mouse TRACP5B only. This assay has a reported sensitivity of 0.1 U/L.
TRACP5B serum levels were evaluated as a measure of osteoclast activity. The level of a TRACP5B was analyzed in FIG. 7 and Table 12.

MM1S tumor bearing mice [3] = test: In vivo microCT analysis of tibial cortical bone density; parameters: species or system SCID-beige mice; settings: Study #0879, 15 mg/kg, tibia
Source text: as §1, with “The X-ray tube was operated at 55 kVp and 145 mA with a focal spot size of 5 μm. Five hundred projection images were acquired per scan with an integration time of 180 ms. Tomographic images were reconstructed on a VMS cluster (HP Alpha, HP, Palo Alto, USA) in 1024×1024 pixel matrices using a conebeam back projection procedure resulting in 315 axial slices.” left out
as §2, with “106 axial slices were obtained using a μ-CT VivaCT40Scanner (SCANCO, Switzerland) with 55 kv, 145 mA, 180 ms integration time and 21 μm resolution.” left out, “All treatment groups were scanned over the course of two days, with equal numbers of animals from each treatment group scanned each day.” left out

MM1S cells [4] = test: Time to clinical endpoint in MM1S model (Study #0942); format: in vivo, SCID-beige mice; settings: for Median Time to Clinical Endpoint: endpoint = clinical score of 3
Experimental: Female SCID-beige mice were injected with MM1S cells (2×10^6) intravenously (iv) into the tail vein on Day 0. Treatment was initiated on Day 10 when the average tumor burden, as determined by bioluminescence, reached approximately 8.0×10^5-1.0×10^6 photons per second. All treatment groups consisted of 8 animals. […] Tumor burden and body weights were recorded once a week during the active dosing period. In vivo micro-computed tomography (microCT) images were acquired in live animals on day 32 and 33 (Study #1) or Day 34 and 35 (Study #2). In the second study, animals were individually monitored until achievement of clinical endpoint. […] Each animal was monitored daily for progression of signs of disease progression, including mobility and general health. Animals were scored on a clinical scale from 0-4. […] These animals were removed from analysis due to treatment related deaths. […] The median time to endpoint for the vehicle treated animals was 37 days.

[5] = Study #0879, 15 mg/kg IP qdx5, 31 days after implantation
[6] = Study #0942, 10 mg/kg IP qdx5, 35 days after implantation
[7] = Study #0942, 20 mg/kg IP qdx5, 35 days after implantation

## Cc1[nH]c2ccccc2c1CCNCc1ccc(/C=C/C(=O)NO)cc1 [LBH589, N-hydroxy-3-[4-[[[2-(2-methyl-1H-indol-3-yl)-ethyl]-amino]methyl]phenyl]-2E-2-propenamide]
MM1S cells [1]; [5]
  % Regression: None
  % T/C: 22%
  Delta Mean Tumor Burden (mean ± SEM): 292.4E+6 ± 92.6E+6 photons/sec
MM1S cells [1]; Study #0879, 15 mg/kg qdX5, Day 31
  reduction in tumor burden: ~78%
MM1S cells [1]; [6]
  % Regression: None
  % T/C: 31%
  Delta Mean Tumor Burden (mean ± SEM): 348.5E+6 ± 49.6E+6 photons/sec
MM1S cells [1]; Study #0942, 10 mg/kg qdX5, Day 35
  reduction in tumor burden: ~79%
MM1S cells [1]; [7]
  % Regression: None
  % T/C: 9%
  Delta Mean Tumor Burden (mean ± SEM): 107.7E+6 ± 42.6E+6 photons/sec
MM1S cells [1]; Study #0942, 20 mg/kg qdX5, Day 35
  reduction in tumor burden: ~91%
MM1S cells [1]; both studies (#0879 and #0942)
  significance of reduction in tumor burden: statistically significant
MM1S tumor bearing mice [2]; Study #0879, 15 mg/kg, after 3 weeks of treatment
  increase in mean trabecular bone density: 5.5 fold
MM1S tumor bearing mice [2]; Study #0879, 15 mg/kg, tibia
  Mean Trabecular Density (BV/TV): 14.48 % BV/TV
MM1S tumor bearing mice [2]; Study #0942, 10 mg/kg
  increase in median trabecular bone density: 11.8 fold
MM1S tumor bearing mice [2]; Study #0942, 10 mg/kg, tibia
  Median Trabecular Density (BV/TV): 8.23 % BV/TV
MM1S tumor bearing mice [2]; Study #0942, 20 mg/kg
  increase in median trabecular bone density: 19.1 fold
MM1S tumor bearing mice [2]; Study #0942, 20 mg/kg, tibia
  Median Trabecular Density (BV/TV): 12.89 % BV/TV
TRACP5B; Study #0879, 15 mg/kg
  Mean TRACP5B Serum Levels: 7.1
TRACP5B; Study #0879, LBH589 alone
  decrease of serum levels of TRACP5B compared to vehicle: 41%
MM1S tumor bearing mice [3]
  Mean Cortical Density (BV/TV): 98.3%
MM1S cells [4]; Study #0942, 10 mg/kg
  Median Time to Clinical Endpoint: 54 days
MM1S cells [4]; Study #0942, 20 mg/kg
  animals without symptoms of disease 80 days after implant: One of the remaining six
  Median Time to Clinical Endpoint: 61 days
